Reference: ChEMBL document CHEMBL4184318, “Identification of Fast-Acting 2,6-Disubstituted Imidazopyridines That Are Efficacious in the in Vivo Humanized Plasmodium falciparum NODscidIL2Rγ null Mouse Model of Malaria” (J Med Chem, 2018)
Values after ≈ are worked out from the molar mass of the structure shown.

Tests used:
[1] = Kinetic solubility of the compound in HCl at pH 2 after 20 hrs by shake flask method; type: physicochemical; settings: read-out: Kinetic_solubility
[2] = Kinetic solubility of the compound in phosphate buffered saline at pH 6.5 after 20 hrs by shake flask method; type: physicochemical; settings: read-out: Kinetic_solubility
[3] = Kinetic solubility of the compound in FaSSIF at pH 6.5 after 20 hrs by shake flask method; type: physicochemical; settings: read-out: Kinetic_solubility
Mus musculus [4] = assay: Dose normalized AUC (0 to 23 hrs) in NOD-scid IL-2Rgamma-null mouse model engrafted with Plasmodium falciparum 3D7 infected human erythrocytes at 25 mg/kg via oral gavage by LC-MS/MS method; type: ADME, organism-based; settings: in vivo
[5] = Drug metabolism in iv or po dosed BALB/c mouse plasma assessed as metabolism at cyclohexane ring by LC-MS/MS method; type: ADME, organism-based; settings: in vivo
[6] = Volume of distribution in Sprague-Dawley rat at 3 mg/kg, iv administered as 2 mins of infusion by LC-MS/MS method; type: ADME, organism-based; settings: in vivo
[7] = Volume of distribution in BALB/c mouse at 5 mg/kg, iv administered as 2 mins of infusion by LC-MS/MS method; type: ADME, organism-based; settings: in vivo
[8] = Cmax in Sprague-Dawley rat at 15 mg/kg administered via oral gavage as bolus dose by LC-MS/MS method; type: ADME, organism-based; parameters: dose 15 mg/kg, route oral; settings: in vivo
[9] = Cmax in Sprague-Dawley rat at 3 mg/kg, iv administered as 2 mins of infusion by LC-MS/MS method; type: ADME, organism-based; parameters: dose 3 mg/kg, route intravenous; settings: in vivo
[10] = Cmax in BALB/c mouse at 20 mg/kg administered via oral gavage as bolus dose by LC-MS/MS method; type: ADME, organism-based; parameters: dose 20 mg/kg, route oral; settings: in vivo
[11] = Cmax in BALB/c mouse at 5 mg/kg, iv administered as 2 mins of infusion by LC-MS/MS method; type: ADME, organism-based; parameters: dose 5 mg/kg, route intravenous; settings: in vivo
[12] = Tmax in Sprague-Dawley rat at 15 mg/kg administered via oral gavage as bolus dose by LC-MS/MS method; type: ADME, organism-based; settings: in vivo
[13] = Tmax in BALB/c mouse at 20 mg/kg administered via oral gavage as bolus dose by LC-MS/MS method; type: ADME, organism-based; settings: in vivo
Rattus norvegicus [14] = assay: Dose normalized AUC (0 to infinity) in Sprague-Dawley rat at 15 mg/kg administered via oral gavage as bolus dose by LC-MS/MS method; type: ADME, organism-based; settings: in vivo
Rattus norvegicus [15] = assay: Dose normalized AUC (0 to infinity) in Sprague-Dawley rat at 3 mg/kg, iv administered as 2 mins of infusion by LC-MS/MS method; type: ADME, organism-based; settings: in vivo
Mus musculus [16] = assay: Dose normalized AUC (0 to infinity) in BALB/c mouse at 20 mg/kg administered via oral gavage as bolus dose by LC-MS/MS method; type: ADME, organism-based; settings: in vivo
Mus musculus [17] = assay: Dose normalized AUC (0 to infinity) in BALB/c mouse at 5 mg/kg, iv administered as 2 mins of infusion by LC-MS/MS method; type: ADME, organism-based; settings: in vivo
[18] = Oral bioavailability in Sprague-Dawley rat at 15 mg/kg administered via gavage as bolus dose by LC-MS/MS method; type: ADME, organism-based; settings: in vivo
[19] = Oral bioavailability in BALB/c mouse at 20 mg/kg administered via gavage as bolus dose by LC-MS/MS method; type: ADME, organism-based; settings: in vivo
[20] = Cmax in NOD-scid IL-2Rgamma-null mouse model engrafted with Plasmodium falciparum 3D7 infected human erythrocytes at 5 mg/kg administered via oral gavage measured over 23 hrs post first dose by LC-MS/MS method; type: ADME, organism-based; parameters: dose 5 mg/kg, route oral; settings: in vivo
[21] = Cmax in NOD-scid IL-2Rgamma-null mouse model engrafted with Plasmodium falciparum 3D7 infected human erythrocytes at 10 mg/kg administered via oral gavage measured over 23 hrs post first dose by LC-MS/MS method; type: ADME, organism-based; parameters: dose 10 mg/kg, route oral; settings: in vivo
[22] = Cmax in NOD-scid IL-2Rgamma-null mouse model engrafted with Plasmodium falciparum 3D7 infected human erythrocytes at 25 mg/kg administered via oral gavage measured over 23 hrs post first dose by LC-MS/MS method; type: ADME, organism-based; parameters: dose 25 mg/kg, route oral; settings: in vivo
[23] = Cmax in NOD-scid IL-2Rgamma-null mouse model engrafted with Plasmodium falciparum 3D7 infected human erythrocytes at 50 mg/kg administered via oral gavage measured over 23 hrs post first dose by LC-MS/MS method; type: ADME, organism-based; parameters: dose 50 mg/kg, route oral; settings: in vivo
Mus musculus [24] = assay: Dose normalized Cmax in NOD-scid IL-2Rgamma-null mouse model engrafted with Plasmodium falciparum 3D7 infected human erythrocytes at 5 mg/kg administered via oral gavage measured over 23 hrs post first dose by LC-MS/MS method; type: ADME, organism-based; settings: in vivo
Mus musculus [25] = assay: Dose normalized Cmax in NOD-scid IL-2Rgamma-null mouse model engrafted with Plasmodium falciparum 3D7 infected human erythrocytes at 10 mg/kg administered via oral gavage measured over 23 hrs post first dose by LC-MS/MS method; type: ADME, organism-based; settings: in vivo
Mus musculus [26] = assay: Dose normalized Cmax in NOD-scid IL-2Rgamma-null mouse model engrafted with Plasmodium falciparum 3D7 infected human erythrocytes at 25 mg/kg administered via oral gavage measured over 23 hrs post first dose by LC-MS/MS method; type: ADME, organism-based; settings: in vivo
Mus musculus [27] = assay: Dose normalized Cmax in NOD-scid IL-2Rgamma-null mouse model engrafted with Plasmodium falciparum 3D7 infected human erythrocytes at 50 mg/kg administered via oral gavage measured over 23 hrs post first dose by LC-MS/MS method; type: ADME, organism-based; settings: in vivo
[28] = Tmax in NOD-scid IL-2Rgamma-null mouse model engrafted with Plasmodium falciparum 3D7 infected human erythrocytes at 5 mg/kg administered via oral gavage measured over 23 hrs post first dose by LC-MS/MS method; type: ADME, organism-based; settings: in vivo
[29] = Tmax in NOD-scid IL-2Rgamma-null mouse model engrafted with Plasmodium falciparum 3D7 infected human erythrocytes at 10 mg/kg administered via oral gavage measured over 23 hrs post first dose by LC-MS/MS method; type: ADME, organism-based; settings: in vivo
[30] = Tmax in NOD-scid IL-2Rgamma-null mouse model engrafted with Plasmodium falciparum 3D7 infected human erythrocytes at 25 mg/kg administered via oral gavage measured over 23 hrs post first dose by LC-MS/MS method; type: ADME, organism-based; settings: in vivo
[31] = Tmax in NOD-scid IL-2Rgamma-null mouse model engrafted with Plasmodium falciparum 3D7 infected human erythrocytes at 50 mg/kg administered via oral gavage measured over 23 hrs post first dose by LC-MS/MS method; type: ADME, organism-based; settings: in vivo
[32] = AUC (0 to 23 hrs) in NOD-scid IL-2Rgamma-null mouse model engrafted with Plasmodium falciparum 3D7 infected human erythrocytes at 5 mg/kg administered via oral gavage by LC-MS/MS method; type: ADME, organism-based; parameters: dose 5 mg/kg, time < 23 hr, route oral; settings: in vivo
[33] = AUC (0 to 23 hrs) in NOD-scid IL-2Rgamma-null mouse model engrafted with Plasmodium falciparum 3D7 infected human erythrocytes at 10 mg/kg administered via oral gavage by LC-MS/MS method; type: ADME, organism-based; parameters: dose 10 mg/kg, time < 23 hr, route oral; settings: in vivo
[34] = AUC (0 to 23 hrs) in NOD-scid IL-2Rgamma-null mouse model engrafted with Plasmodium falciparum 3D7 infected human erythrocytes at 25 mg/kg administered via oral gavage by LC-MS/MS method; type: ADME, organism-based; parameters: time < 23 hr, dose 25 mg/kg, route oral; settings: in vivo
[35] = AUC (0 to 23 hrs) in NOD-scid IL-2Rgamma-null mouse model engrafted with Plasmodium falciparum 3D7 infected human erythrocytes at 50 mg/kg administered via oral gavage by LC-MS/MS method; type: ADME, organism-based; parameters: dose 50 mg/kg, time < 23 hr, route oral; settings: in vivo
Mus musculus [36] = assay: Dose normalized AUC (0 to 23 hrs) in NOD-scid IL-2Rgamma-null mouse model engrafted with Plasmodium falciparum 3D7 infected human erythrocytes at 5 mg/kg administered via oral gavage by LC-MS/MS method; type: ADME, organism-based; settings: in vivo
Mus musculus [37] = assay: Dose normalized AUC (0 to 23 hrs) in NOD-scid IL-2Rgamma-null mouse model engrafted with Plasmodium falciparum 3D7 infected human erythrocytes at 10 mg/kg administered via oral gavage by LC-MS/MS method; type: ADME, organism-based; settings: in vivo
Mus musculus [38] = assay: Dose normalized AUC (0 to 23 hrs) in NOD-scid IL-2Rgamma-null mouse model engrafted with Plasmodium falciparum 3D7 infected human erythrocytes at 50 mg/kg administered via oral gavage by LC-MS/MS method; type: ADME, organism-based; settings: in vivo
[39] = Drug metabolism in po dosed BALB/c mouse plasma assessed as oxidation of pyridine ring by LC-MS/MS method; type: ADME, organism-based; settings: in vivo
[40] = Drug metabolism in po dosed BALB/c mouse plasma assessed as glucuronidation of pyridine ring by LC-MS/MS method; type: ADME, organism-based; settings: in vivo
[41] = Drug metabolism in po dosed BALB/c mouse plasma assessed as sulfation of pyridine ring by LC-MS/MS method; type: ADME, organism-based; settings: in vivo

Compound: Fc1ccc(-c2nc3cnc(Nc4ccccn4)cc3[nH]2)cc1F
- solubility kinetic at 20 h [1]: 125 µM (≈ 40.4 µg/mL)
- solubility kinetic at 20 h [2]: < 5 µM
- solubility kinetic at 20 h [3]: 50 to 100 µM (≈ 16.2 to 32.3 µg/mL)

Compound: FC1(F)CCC(c2nc3cnc(Nc4ccc(C(F)(F)F)cn4)cc3[nH]2)CC1
- AUC/dose (Mus musculus [4]): 2.311 µg·h/mL/mg/kg
- solubility kinetic at 20 h [1]: 199 µM (≈ 79.1 µg/mL)
- solubility kinetic at 20 h [2]: 99 µM (≈ 39.3 µg/mL)
- solubility kinetic at 20 h [3]: 93 µM (≈ 37 µg/mL)
- Drug metabolism [5]: Metabolite_Notdetected
- Vd [6]: 3 L/kg
- Vd [7]: 1.5 L/kg
- Cmax [8]: 1.2 µM
- Cmax [9]: 2.6 µM
- Cmax [10]: 9.6 µM
- Cmax [11]: 5.1 µM
- Tmax [12]: 3 h
- Tmax [13]: 1 h
- AUC/dose (Rattus norvegicus [14]): 342 µM·min
- AUC/dose (Rattus norvegicus [15]): 286 µM·min
- AUC/dose (Mus musculus [16]): 2178 µM·min
- AUC/dose (Mus musculus [17]): 1078 µM·min
- bioavailability [18]: 24%
- bioavailability [19]: 51%
- Cmax [20]: 431 ng/mL
- Cmax [21]: 927 ng/mL
- Cmax [22]: 3340 ng/mL
- Cmax [23]: 8650 ng/mL
- Cmax/dose (Mus musculus [24]): 0.086 µg/mL/mg/kg
- Cmax/dose (Mus musculus [25]): 0.093 µg/mL/mg/kg
- Cmax/dose (Mus musculus [26]): 0.167 µg/mL/mg/kg
- Cmax/dose (Mus musculus [27]): 0.173 µg/mL/mg/kg
- Tmax [28]: 0.5 to 2 h
- Tmax [29]: 0.5 to 4 h
- Tmax [30]: 0.5 to 23 h
- Tmax [31]: 0.25 to 2 h
- AUC(0-t) at 23 h [32]: 4380 ng·h/mL
- AUC(0-t) at 23 h [33]: 8670 ng·h/mL
- AUC(0-t) at 23 h [34]: 46200 ng·h/mL
- AUC(0-t) at 23 h [35]: 88000 ng·h/mL
- AUC/dose (Mus musculus [36]): 0.876 µg·h/mL/mg/kg
- AUC/dose (Mus musculus [37]): 0.867 µg·h/mL/mg/kg
- AUC/dose (Mus musculus [38]): 1.759 µg·h/mL/mg/kg

Compound: FC(F)(F)c1cccc(-c2nc3cnc(Nc4ccccn4)cc3[nH]2)c1
- solubility kinetic at 20 h [1]: 21 µM (≈ 7.46 µg/mL)
- solubility kinetic at 20 h [2]: < 5 µM
- Drug metabolism [39]: Metabolite_Detected
- Drug metabolism [40]: Metabolite_Detected
- Drug metabolism [41]: Metabolite_Detected

Compound: FC(F)(F)c1ccc(-c2nc3cnc(Nc4ccccn4)cc3[nH]2)cn1
- solubility kinetic at 20 h [1]: 180 µM (≈ 64.1 µg/mL)
- solubility kinetic at 20 h [2]: < 5 µM
- solubility kinetic at 20 h [3]: 50 to 100 µM (≈ 17.8 to 35.6 µg/mL)
